“And” between values parts separate entries of the source, which are not always exact repeats. Equal entries are not always repeated.
Experiments:
FFA1-Nluc = FFA1-Nluc (Homo sapiens, UniProt O14842); assay: DISCo-BRET (endpoint, spectra scan, kinetics) with TUG-2591 and TUG-2597 at C terminal Nluc tagged FFA1; format: binding; parameters: expressed in transfected cells; settings: for Specific BRET (540/450), % of control: Figure 4Bii, single replicate values (technical duplicate)
In short: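 After Nano-Glo substrate (1:800 final), ligand-treated FFA1-Nluc or Nluc-FFA1 cells, doxycycline-induced (100 ng/mL), were read. Kinetic association/dissociation runs were at 25 °C; endpoint and 440–740 nm spectra came after 5 min at 37 °C. Non-specific signal came from competing ligands at high concentration.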

FFA1 = FFA1 (Homo sapiens, UniProt O14842); assay: NanoBiT arrestin-3 recruitment in HEK293T cells; format: cell-based; parameters: expressed in transfected cells; host or cells: HEK293T, transient; settings: for Arrestin recruitment (% TUG-905): technical duplicate
Sequence of FFA1 (O14842 whole entry, the tested form may be a part): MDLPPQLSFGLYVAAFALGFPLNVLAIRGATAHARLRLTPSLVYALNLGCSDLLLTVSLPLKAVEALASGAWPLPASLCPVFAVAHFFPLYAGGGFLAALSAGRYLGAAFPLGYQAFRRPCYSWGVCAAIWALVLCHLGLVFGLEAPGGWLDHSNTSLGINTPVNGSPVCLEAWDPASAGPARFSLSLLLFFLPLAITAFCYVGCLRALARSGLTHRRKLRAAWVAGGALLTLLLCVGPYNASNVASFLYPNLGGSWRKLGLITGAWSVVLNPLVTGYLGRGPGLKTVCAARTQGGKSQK
Procedure: For arrestin-3 recruitment assays, HEK293T cells were transfected with FFA1 receptor and a bystander NanoBiT split luciferase arrestin-3 recruitment biosensor. Cells were transfected and plated simultaneously in a reverse transfection protocol into a poly-D-lysine coated white 96-well plate. Per well, 60,000 cells were transfected with 5 ng plasmid expressing LgBiT with a N-terminal Lyn11 plasma membrane localisation tag, 5 ng plasmid expressing bovine arrestin-3 fused at its N-terminal to SmBiT tag and 30 ng plasmid expressing the human FFA1 receptor. Total DNA was made up to 100 ng total/well with empty pcDNA3 vector and transfected to cell suspension with 0.6 µg/well PEI. Following transfection cells were cultured for 24 h before use. On the day of assay, cells were washed twice with HBSS and incubated in HBSS for 30 min at 37 °C. NanoGlo substrate was added at a final 1:800 dilution and incubated in the dark for 10 min at 37 °C. […] Raw luminescence values were divided by baseline signal (average of first 5 data points prior to compound addition) and vehicle measurements subtracted from agonist treatment. Area under curves were calculated and concentration response curves plotted.

Sequence of FFA1-Nluc (O14842 whole entry): as the sequence (O14842 whole entry, the tested form may be a part) above

COc1ccc(C(=O)N(CC(C)(C)C)c2cccc(C)n2)c(N2CCC(COc3cccc(C(CC(=O)O)C4CC4)c3)CC2)c1.O=C(O)C(F)(F)F (stereo not drawn) [Cpd 6h, reference compound]
pIC50 DISCo-BRET NBD/Nluc (FFA1-Nluc; 100 nM TUG-2591 and […] TUG-2597, NC = No competition): 7.3±0.1
pIC50 DISCo-BRET SulfoCy5/NBD (FFA1-Nluc; 100 nM TUG-2591 and […] TUG-2597, one site model, NC = No competition): 7.4±0.1
Specific BRET (540/450), % of control (FFA1-Nluc; log[Ligand] -5): 29.23 % of control and -1.54 % of control and -0.53 % of control and 0.53 % of control and 0.62 % of control and 6.18 % of control and -2.77 % of control and 4.56 % of control and -7.63 % of control and 10.97 % of control
Specific BRET (540/450), % of control (FFA1-Nluc; log[Ligand] -5.5): 46.57 % of control and -7.13 % of control and 13.78 % of control and 13.63 % of control and 17.56 % of control and 19.08 % of control and -1.79 % of control and 0.81 % of control and 1.43 % of control and -21.22 % of control
Specific BRET (540/450), % of control (FFA1-Nluc; log[Ligand] -6): 59.72 % of control and 23.08 % of control and 13.18 % of control and 6.55 % of control and 14.37 % of control and 13.95 % of control and 102.77 % of control and 7.65 % of control and 12.16 % of control and 25.98 % of control
Specific BRET (540/450), % of control (FFA1-Nluc; log[Ligand] -6.5): 46.01 % of control and 12.17 % of control and 20.56 % of control and 31.70 % of control and 26.58 % of control and 36.43 % of control and 14.98 % of control and 12.87 % of control and 22.17 % of control and 15.73 % of control
Specific BRET (540/450), % of control (FFA1-Nluc; log[Ligand] -7): 46.01 % of control and 48.53 % of control and 38.93 % of control and 54.59 % of control and 43.79 % of control and 54.75 % of control and 36.48 % of control and 23.45 % of control and 26.46 % of control and 27.41 % of control
Specific BRET (540/450), % of control (FFA1-Nluc; log[Ligand] -8): 134.69 % of control and 121.26 % of control and 83.36 % of control and 78.84 % of control and 78.63 % of control and 91.67 % of control and 70.36 % of control and 75.90 % of control and 108.22 % of control and 143.98 % of control
Specific BRET (540/450), % of control (FFA1-Nluc; log[Ligand] -9): 144.76 % of control and 148.39 % of control and 88.63 % of control and 100.08 % of control and 88.76 % of control and 93.89 % of control and 95.60 % of control and 108.79 % of control and 114.18 % of control and 110.13 % of control
'bottom' of the IC50 curve, DISCo-BRET NBD/Nluc (FFA1-Nluc; percentage of binding obtained in the absence of competing ligand): 9.3%
'bottom' of the IC50 curve, DISCo-BRET SulfoCy5/NBD (FFA1-Nluc; percentage of binding obtained in the absence of competing ligand, 100 nM TUG-2591 and […] TUG-2597): 16%
pKi DISCo-BRET NBD/Nluc (FFA1-Nluc; using Kd TUG-2597 380 nM): 7.5±0.1
Arrestin recruitment (% TUG-905) (FFA1; log[ligand] -6): 78.0249 % TUG-905 and 64.444 % TUG-905 and 40.7503 % TUG-905 and 51.9792 % TUG-905 and 61.8079 % TUG-905 and 63.543 % TUG-905
Arrestin recruitment (% TUG-905) (FFA1; log[ligand] -6.5): 82.3608 % TUG-905 and 53.7805 % TUG-905 and 51.6658 % TUG-905 and 54.0552 % TUG-905 and 67.7023 % TUG-905 and 49.6983 % TUG-905
Arrestin recruitment (% TUG-905) (FFA1; log[ligand] -7.5): 66.0536 % TUG-905 and 57.1103 % TUG-905 and 48.5714 % TUG-905 and 47.0829 % TUG-905 and 58.219 % TUG-905 and 65.2186 % TUG-905
Arrestin recruitment (% TUG-905) (FFA1; log[ligand] -8): 69.0414 % TUG-905 and 63.7801 % TUG-905 and 51.8356 % TUG-905 and 46.0645 % TUG-905 and 48.8783 % TUG-905 and 52.0275 % TUG-905
EMax (% TUG-905) arrestin-3 recruitment (FFA1; percentage of the response to 10 μM TUG-905, ± SEM): 54 ± 6%
pEC50 arrestin-3 recruitment (FFA1; ± SEM, N=3): 9.1 ±0.1
